According to publication PMC8398766, “Do Small Molecules Activate the TrkB Receptor in the Same Manner as BDNF? Limitations of Published TrkB Low Molecular Agonists and Screening for Novel TrkB Orthosteric Agonists” (Pharmaceuticals, 2021):

Legend:
[1] = Metabolic stability in human liver microsomes; settings: for Metabolic stability in HLM (classification): compared with verapamil; for Clint HLM: 1 μM, phase I
TrkB receptor = biological target: T1, TrkB receptor (Rattus norvegicus, UniProt Q63604); assay: ELFI TrkB phosphorylation, orthosteric agonist mode, SN56 T48 cell line; type: cell-based; settings: 0.125–100 μM, 15 min
T1 construct: host or cells: SN56 T48 cell line
Method: The SN56 T48 cell line with stable overexpression of the TrkB receptor was purchased from Emory University (Atlanta, GA, USA) and cultivated according to the protocol described in Jang et al., 2010 [12]. The cell lines were cultivated with the following reagents: DMEM High Glucose, fetal bovine serum (FBS), Penicillin-Streptomycin Solution 100×, and Trypsin-EDTA 1×; all were purchased from Biowest, and G418 was from ThermoFisher Scientific. For the ELFI experiments, cells were seeded (8000/well) on a PDL-treated 96-well plate (BioCoat™, Corning Inc., Corning, NY, USA) and 6-well plate (400,000/well) for lysate collection and immunoblot analysis.
In the orthosteric agonist mode experiments, starved cells (5 h) were treated with compounds (0.125–100 μM; volume, 100 μL/well) or BDNF (0.01–10 nM; volume, 100 μL/well) dissolved in culture medium. In the allosteric modulation mode experiments, starved cells (5 h) were treated with final compound concentrations of 3, 10, and 30 μM; volume, 50 μL/well) in the presence of a rising concentration of BDNF (final concentration in well, 0.15–5 nM; volume, 50 μL/well). Corresponding treatment with DMSO (v/v) was performed for a control. Cells were treated for 15 min in both the orthosteric and allosteric modulation mode experiments.
The analysis of TrkB receptor activation was performed using the ELFI method adapted from Boltayev et al. (2017) with some modifications. After compound treatment, experiments were stopped by fixing cells with 10% buffered formalin (Kolchem, Lodz, Poland) for 20 min (volume, 100 μL/well). Afterwards, cells were permeabilized with washing buffer (TBS+ 0.1% Tween20) for 15 min, and endogenous peroxidases were quenched by 20 min of incubation with 1% H2O2 dissolved in TBS (each solution: volume, 100 μL/well). Epitopes were blocked with 10% BSA (Biowest) dissolved in washing buffer for 2 h (volume, 100 μL/well) and incubated with anti-pTrkB (Tyr707) primary antibody (Cell Signaling Technology, Danvers, MA, USA) diluted in washing buffer (1:500; overnight at 4 °C; volume, 100 μL/well). After repeated washing, cells were incubated with HRP-linked anti-rabbit antibody (Cell Signaling Technology) for 2 h (1:1000; RT; volume, 100 μL/well) and washed. The cells were then incubated with 100 μL of ImmunoCruz™ Western Blotting Luminol (Santa Cruz Biotechnology, Dallas, TX, USA) for 1 min in the dark, and the signals were measured using a microplate luminometer (VICTOR Light 1420-060, PerkinElmer®, Waltham, MA, USA). For non-specific binding, cells were treated, with the exception of primary antibody.

exTrkB = biological target: T2, exTrkB (Homo sapiens, UniProt Q16620); assay: MST binding affinity (Kd) determination
T2 construct: human TrkB receptor (exTrkB), residues 1−430, was cloned into the pCMV2 expression vector; made in house; host or cells: ExpiCHO-S cells
Method: The gene encoding the extracellular domain of the human TrkB receptor (exTrkB), residues 1−430, was cloned into the pCMV2 expression vector. Protein expression was performed in suspension-cultivated mammalian ExpiCHO-S cells using the ExpiFectamine (Thermo Scientific, Thermo Fisher Scientific, Waltham, MA, USA) transfection reagent. The secreted protein was purified using a four-step protocol. Clarified culture medium was precipitated with ammonium sulfate added to a final concentration of 1.5 M and centrifuged (235,000× g, 60 min at 4 °C). The supernatant after centrifugation was applied on a HiTrap Phenyl column (GE Healthcare, Chicago, IL, USA) equilibrated with buffer A (25 mM Tris, 1 mM DTT; pH 7.5) with 1.5 M ammonium sulfate. Bound proteins were eluted with a linear gradient of buffer A. The eluted proteins were dialyzed overnight in buffer A and loaded on a CaptoQ ImpRes column (GE Healthcare) equilibrated with buffer A with 50 mM NaCl. The bound proteins were eluted with a linear gradient of buffer A with 1 M NaCl. The fractions containing exTrkB protein were pooled, and MnCl2 and CaCl2 (1mM final concentration each) were added. The sample was purified on a HiTrap Con A 4B column (GE Healthcare) equilibrated with buffer B (25 mM Tris, 0.5 M NaCl, 1 mM MnCl2, 1 mM CaCl2; pH 7.5) and eluted with buffer C (25 mM Tris, 0.1 M NaCl, 0.4 M α-D-glucopyranoside; pH 6.5). To improve the protein recovery, buffer C flow was paused nine times during elution. The eluted fractions were concentrated and purified by size-exclusion chromatography on a HiLoad 16/600 Superdex 200 column (GE Healthcare) in buffer A with 0.5 M NaCl. The protein samples were concentrated to 1 mg/mL, and buffer was exchanged (PBS; pH 7.4). Samples were frozen in liquid nitrogen and stored at −80 °C. The protein purity was estimated by SDS–PAGE followed by Coomassie Brilliant Blue staining. The protein concentration was determined from the absorption at 280 nm using an UV NanoDrop 1000 spectrophotometer (Thermo Scientific).
The exTrkB was labeled with a Monolith Protein Labeling Kit RED-NHS 2nd Generation (NanoTemper Technologies GmbH, Munich, Germany) according to the manufacturer’s protocol. The labelling efficiency was always determined spectrophotometrically with NanoPhotometer® NP80 (Impel) in line with the manufacturer’s recommendations. Labelled exTrkB protein was aliquoted and stored at −80 °C to avoid repeated freeze–thaw cycles. Before analysis, the exTrkB protein was thawed on ice and diluted with MST buffer (50 mM Tris pH = 8; 150 mM NaCl; 10 mM MgCl2; 0.1% Tween20) to the desired concentration.
For primary screening (single-point MST experiments for signal amplitude determination), each of the 987 screened compounds were diluted in MST buffer + 0.1% Tween20 to a final concentration of 0.5 mM. The tested compounds were mixed with exTrkB solution (the final concentration of exTrkB was 20 nM) and centrifuged (10,000× g, 4 min at 4 °C) to eliminate protein and compound aggregates. Before loading to capillaries (Monolith NT.115 Capillaries, NanoTemper Technologies GmbH), the samples were incubated for 5 min at 25 °C and then placed into the MST apparatus (Monolith, NanoTemper Technologies GmbH). The experiments were performed using nano-blue excitation, LED light adjusted to 20% excitation power, and MST power set to medium, and the fluorescence signal during thermophoresis was detected after 30 s. Single-point MST experiments were performed by the determination of the amplitude signal between the unbound and bound state between the molecule and exTrkB, which was analyzed using the MO.Control Software version 1.6 (NanoTemper Technologies GmbH). A reference sample containing only exTrkB and the equivalent DMSO concentration (v/v) was included in each individual MST experiment. At least three technical replicates were prepared for each of the tested compounds. A binding affinity study was performed for 113 of the selected compounds at 16 concentration points. […]

PAMPA = settings: for PAMPA: 10 μM, 4 h
[2] = Metabolic stability in mouse liver microsomes; settings: for Metabolic stability in MLM (classification): compared with verapamil; for Clint MLM: 1 μM, phase I
[3] = Chemical stability pH 7.4; type: physicochemical; settings: pH = 7.4, 4 h
[4] = pH 7.4
Caco-2 monolayer = assay: Caco-2 passive permeability; settings: for Papp,AB: Caco-2, apical to basal; for Papp,AB / Papp,BA: 2 h; for Papp,BA: Caco-2, basal to apical
[5] = Caco-2 passive permeability; settings: human, Caco-2, with 5 μM elacridar and 20 μM cyclosporine A

T2 sequence (Q16620 32-430): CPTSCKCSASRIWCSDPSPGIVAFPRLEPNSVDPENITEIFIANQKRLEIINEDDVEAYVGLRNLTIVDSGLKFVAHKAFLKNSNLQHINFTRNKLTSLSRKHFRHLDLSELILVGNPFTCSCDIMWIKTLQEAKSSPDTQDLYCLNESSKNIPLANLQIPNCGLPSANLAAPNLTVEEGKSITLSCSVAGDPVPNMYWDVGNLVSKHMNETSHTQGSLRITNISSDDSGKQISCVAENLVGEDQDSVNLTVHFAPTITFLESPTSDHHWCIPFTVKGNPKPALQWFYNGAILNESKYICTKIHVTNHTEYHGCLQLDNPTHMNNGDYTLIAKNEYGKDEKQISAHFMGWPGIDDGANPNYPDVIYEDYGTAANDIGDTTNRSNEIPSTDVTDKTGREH
T1 sequence (Q63604 32-821): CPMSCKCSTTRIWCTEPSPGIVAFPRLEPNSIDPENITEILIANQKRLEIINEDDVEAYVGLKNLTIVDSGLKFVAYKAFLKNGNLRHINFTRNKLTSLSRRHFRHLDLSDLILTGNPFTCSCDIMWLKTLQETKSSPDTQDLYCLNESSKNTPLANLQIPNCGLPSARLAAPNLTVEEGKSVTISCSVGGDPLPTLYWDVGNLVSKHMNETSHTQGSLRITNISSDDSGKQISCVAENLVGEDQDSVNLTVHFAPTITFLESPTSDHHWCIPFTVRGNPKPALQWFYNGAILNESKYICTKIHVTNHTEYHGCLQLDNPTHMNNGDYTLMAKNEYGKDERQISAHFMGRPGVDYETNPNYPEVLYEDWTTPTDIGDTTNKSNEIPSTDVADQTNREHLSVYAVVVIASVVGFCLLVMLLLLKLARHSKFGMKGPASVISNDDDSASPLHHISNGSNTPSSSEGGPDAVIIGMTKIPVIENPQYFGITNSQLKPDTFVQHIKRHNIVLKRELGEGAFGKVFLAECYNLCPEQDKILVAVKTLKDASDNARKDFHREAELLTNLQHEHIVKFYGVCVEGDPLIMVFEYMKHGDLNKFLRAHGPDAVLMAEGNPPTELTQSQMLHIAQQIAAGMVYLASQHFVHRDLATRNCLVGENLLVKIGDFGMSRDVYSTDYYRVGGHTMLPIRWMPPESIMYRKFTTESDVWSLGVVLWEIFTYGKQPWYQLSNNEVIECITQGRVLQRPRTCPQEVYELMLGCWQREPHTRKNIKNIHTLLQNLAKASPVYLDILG

| Structure (SMILES) | Metabolic stability in HLM (classification) [1] | Orthosteric activity (induction of TrkB phosphorylation) (TrkB receptor) | Binding to the exTrkB receptor (exTrkB) | PAMPA (PAMPA) | Metabolic stability in MLM (classification) [2] | Chemical Stability [% of Degradation] [3] | Kinetic Solubility [4] | Papp,AB (Caco-2 monolayer) | Papp,BA (Caco-2 monolayer) | Clint MLM [2] | microsomal CLint at 1 μM ([1]; human, liver microsomes) | Papp A→B at 2 h [5] | Papp B→A at 2 h [5] | microsomal CLint at 1 μM ([2]; mouse, liver microsomes) | Clint HLM [1] | Permeability in Caco-2 system (good permeability) (Caco-2 monolayer) | Permeability in PAMPA assay (good permeability) (PAMPA) | Kd (exTrkB; non-binding compounds given as 0) |
| --- | --- | --- | --- | --- | --- | --- | --- | --- | --- | --- | --- | --- | --- | --- | --- | --- | --- | --- |
| NCCCC[C@H](NC(=O)[C@H](CO)NC(=O)CCC(=O)O)C(=O)NCCCCCCNC(=O)[C@H](CCCCN)NC(=O)[C@H](CO)NC(=O)CCC(=O)O [GSB-106, [OH-Suc-Ser-Lys-NH-(CH2)3-]2] | instability of this compound in the experimental system | did not observe any orthosteric activity | not observed | 0.85 10^−6·cm/s | instability of this compound in the experimental system | Stable | 152.7 µM |  |  |  |  |  |  |  |  |  |  |  |
| O=C1NCCCC1C(=O)NCCc1c[nH]c2ccc(O)cc12 (stereo not drawn) [HIOC] | very good metabolic stability | did not observe any orthosteric activity | not observed | 1.24 10^−6·cm/s | very good metabolic stability | Stable | 437 µM | 1.11 10^−6·cm/s | 2.29 10^−6·cm/s | 2.1 μL·min^−1·mgprotein^−1 |  |  |  |  |  |  |  |  |
| COc1ccc(-c2cc3cccc(O)c3c(=O)o2)cc1 [Isocumarin, 8-hydroxy-3-(4′-methoxyphenyl)-isocumarin] | highly unstable | did not observe any orthosteric activity | not observed | 0.22 10^−6·cm/s | highly unstable | Stable |  |  |  |  | 781 µL/min/mg | 1.6 ×10⁻⁶ cm/s | 2.18 ×10⁻⁶ cm/s | 407 µL/min/mg |  |  |  |  |
| CC(C)CCNc1ncccc1C(=O)N1CCN(Cc2ccccc2)CC1 [NSI-189] | highly unstable | did not observe any orthosteric activity | not observed | 8.91 10^−6·cm/s | highly unstable | 0.65% | 500 µM | 28.23 10^−6·cm/s | 13.22 10^−6·cm/s | 1316.7 μL·min^−1·mgprotein^−1 |  |  |  |  | 466.6 μL·min^−1·mgprotein^−1 | > 10^−6 cm/s | > 10^−6 cm/s |  |
| CN(C)c1ccc(-c2cc(=O)c3ccc(O)c(O)c3o2)cc1 [4′-dimethylamino-7,8-DHF] | highly unstable | did not observe any orthosteric activity | not observed | 15.5 10^−6·cm/s | highly unstable | 1.31% |  | 15.61 10^−6·cm/s | 9.03 10^−6·cm/s | 365.1 μL·min^−1·mgprotein^−1 |  |  |  |  | 175.7 μL·min^−1·mgprotein^−1 | > 10^−6 cm/s | > 10^−6 cm/s |  |
| OCCN(CCO)c1ccc(C(c2ccc(Cl)cc2)c2ccc(N(CCO)CCO)cc2)cc1 [LM22-B10] | moderately stable | did not observe any orthosteric activity | not observed | 2.36 10^−6·cm/s | stable | 4.18% |  | 6.47 10^−6·cm/s | 4.97 10^−6·cm/s | 4.8 μL·min^−1·mgprotein^−1 |  |  |  |  | 29 μL·min^−1·mgprotein^−1 |  |  | 83 µM |
